From ChEMBL document CHEMBL4819077, “Design, synthesis, and biological evaluation of diosgenin-indole derivatives as dual-functional agents for the treatment of Alzheimer's disease” (Eur J Med Chem, 2021) come the findings set out here.

Series [1] deals with SH-SY5Y. The experiment in a line: Cytotoxicity against human SH-SY5Y cells assessed as reduction in cell viability measured after 24 hrs by MTT assay. Type of series: cell-based. For orientation: Tetrazolium assays rely on reduction of a dye to a coloured formazan, in cell work by metabolically active cells.
Series [2] relates to SH-SY5Y. Nature of the series: Neuroprotection against H202-induced oxidative stress in human SH-SY5Y cells assessed as cell protection at 10 uM preincubated for 2 hr before H202 challenge and measured after 24 hrs by MTT assay. Type of series: functional.
Series [3] relates to SH-SY5Y. The experiment in a line: Neuroprotection against 6-OHDA-induced oxidative stress in human SH-SY5Y cells assessed as cell protection at 10 uM preincubated for 2 hr before 6-OHDA challenge and measured after 24 hrs by MTT assay. Type of series: functional. The conditions noted are these: time 26 hrs.
The subject of series [4] is SH-SY5Y. The experiment in a line: Neuroprotection against Abeta-induced oxidative stress in human SH-SY5Y cells assessed as cell protection at 10 uM incubated for 2 hr before Abeta(1-42) challenge and measured after 24 hrs by MTT assay. It is filed as functional. Conditions: time 26 hrs.
In series [5] the test system is Mus musculus. Nature of the series: Improvement in learning and spatial memory in icv infused amyloid beta (1 to 42)-induced ICR mouse model of Alzheimer's disease assessed as improved target quadrant exploration time at to 2 mg/kg, po administered daily for 7 days starting from 7 days post surgery by Morris water maze test. Type of series: functional, organism-based. The conditions noted are these: time 7.0 day.

Series [6] has as its system Mus musculus. The experiment in a line: Neuroprotection against icv infused amyloid beta (1 to 42)-induced ICR mouse model of Alzheimer's disease assessed as rescue of pyknotic nucleus in hippocampal at to 2 mg/kg, po administered daily for 7 days by HE staining. It is filed as functional, organism-based. Conditions: time 7.0 day.
The test system of series [7] is Mus musculus. The experiment in a line: Neuroprotection against icv infused amyloid beta (1 to 42)-induced ICR mouse model of Alzheimer's disease assessed as rescue of decrease neuronal cells in hippocampal at to 2 mg/kg, po administered daily for 7 days by HE staining. Type of series: functional, organism-based. Conditions: time 7.0 day.

The source made the active and inactive calls. The rule behind the calls is not given here.

As to `Cc1ccc2[nH]cc(CCNC(=O)Oc3ccc4c(c3)CC[C@@H]3[C@@H]4CC[C@]4(C)[C@@H]5[C@H](C[C@@H]34)O[C@]3(CC[C@@H](C)CO3)[C@H]5C)c2c1`, the Activity result in series [1] is recorded as “Non-Toxic”; in series [2] it was 49.1%; in series [3] it was 27.7%; in series [4], 34.2%.

Take `C[C@@H]1CC[C@@]2(OC1)O[C@H]1C[C@H]3[C@@H]4CCc5cc(OC(=O)NCCc6c[nH]c7cc(F)ccc67)ccc5[C@H]4CC[C@]3(C)[C@H]1[C@@H]2C`: the Activity result was “Non-Toxic” in series [1], 35.8% in series [2], 40.2% in series [3] and 42.5% in series [4].

As to `COc1cc2c(cc1OC)C(=O)C(CC1CCN(Cc3ccccc3)CC1)C2` (stereo unspecified), the result in series [5], in series [6] and in series [7] was Active.

On to `COc1ccc2[nH]cc(CC(C)NC(=O)Oc3ccc4c(c3)CC[C@@H]3[C@@H]4CC[C@]4(C)[C@@H]5[C@H](C[C@@H]34)O[C@]3(CC[C@@H](C)CO3)[C@H]5C)c2c1` (stereo partly specified), for which the Activity result is “Non-Toxic” in series [1], 43.6% in series [2], 25.8% in series [3] and 37.2% in series [4].

For `COc1ccc2[nH]cc(CC(=O)Oc3ccc4c(c3)CC[C@@H]3[C@@H]4CC[C@]4(C)[C@@H]5[C@H](C[C@@H]34)O[C@]3(CC[C@@H](C)CO3)[C@H]5C)c2c1`, the Activity result is “Non-Toxic” in series [1], 26.9% in series [2], 57.4% in series [3] and 30.4% in series [4].

`C[C@@H]1CC[C@@]2(OC1)O[C@H]1C[C@H]3[C@@H]4CCc5cc(OC(=O)NCCc6c[nH]c7ccc(F)cc67)ccc5[C@H]4CC[C@]3(C)[C@H]1[C@@H]2C`: the Activity entry in series [1] is reported as “Non-Toxic”; in series [2], 43.4%; in series [3], 47.7%; in series [4], 44.8%.

Turning to `COc1ccc2c(CCNC(=O)Oc3ccc4c(c3)CC[C@@H]3[C@@H]4CC[C@]4(C)[C@@H]5[C@H](C[C@@H]34)O[C@]3(CC[C@@H](C)CO3)[C@H]5C)c[nH]c2c1`, the Activity entry in series [1] was “Non-Toxic”; in series [2], 50%; in series [3] it was 47.7%; in series [4] it was 43.7%.

On to `COc1ccc2[nH]c(C)c(CC(=O)Oc3ccc4c(c3)CC[C@@H]3[C@@H]4CC[C@]4(C)[C@@H]5[C@H](C[C@@H]34)O[C@]3(CC[C@@H](C)CO3)[C@H]5C)c2c1`, for which the Activity entry in series [1] was “Non-Toxic”; in series [2], 37.7%; in series [3] it was 42.3%; in series [4] it was 26.9%.
